Test results from patent US12466863B2, “Nuclear reprogramming factor and induced pluripotent stem cells” (Kyoto University, priority 2005, dated 2025).

Key:
[1] = tested on: MEFs with Nanog-EGFP-IRES-Puro; assay: GFP-positive colonies from Nanog-EGFP-IRES-Puro MEFs after 4-factor transduction and puromycin selection; type: cell-based, mouse; settings: PD98059 25 μM continuously from the next day of retroviral transfection; 4 factors; 8% without PD98059
Source text: Studies were made as to whether iPS cells could be established with a reporter other than Fbx15-βgeo. Escherichia coli artificial chromosome (BAC) containing the Nanog gene in the center was isolated, and then the GFP gene and the puromycin resistance gene were knocked in by recombination in E. coli (FIG. 12A). Subsequently, the above modified BAC was introduced into ES cells to confirm that the cells became GFP-positive in an undifferentiated state specific manner (data not shown). Then, these ES cells were transplanted in mouse blastocysts to create transgenic mice via chimeric mice. In these mice, GFP-positive cells were specifically observed in inner cell masses of the blastocysts or gonads of embryos at 13.5 days after fertilization (FIG. 12B). The gonads were removed from the embryos at 13.5 days after fertilization (hybrid of DBA, 129, and C57BL/6 mice), and MEFs were isolated. The isolated MEFs were confirmed to be GFP-negative (FIG. 13) by flow cytometry. These MEFs were retrovirally transduced with the 4 factors and subjected to puromycin selection, and as a result, a plural, number of resistant colonies were obtained. Only about 10 to 20% of the colonies were GFP-positive. When the GFP-positive colonies were passaged, they gave morphology (FIG. 14) and proliferation (FIG. 15) similar to those of ES cells. […]

[2] = tested on: MEFs derived from the Fbx15^βgeo/βgeo mouse; assay: Effect of cytokine (bFGF- or SCF-producing STO feeder cells) on iPS cell establishment; type: cell-based; settings: no colony on normal STO cells
Source text: An effect of cytokine on iPS cell establishment was investigated. Expression vector (pMX retroviral vector) for basic fibroblast growth factor (bFGF) or stem cell factor (SCF) was transduced into feeder cells (STO cells) to establish cells permanently expressing the cytokines. […] As a result, the number of formed colonies increased 20 times or higher on the STO cells producing bFGF (FIG. 11) or SCF (data not shown), as compared with the culture on normal STO cells.

COc1cccc(-c2cc(=O)c3ccccc3o2)c1N [PD98059]
percentage of GFP-positive colonies [1]: 45%

SCF: cytokine produced by STO feeder cells transduced with pMX expression vector
iPS cell colony formation with the 3 factors other than c-Myc [2]: colony formation was observed

bFGF: cytokine produced by STO feeder cells transduced with pMX expression vector
iPS cell colony formation with the 3 factors other than c-Myc [2]: colony formation was observed
